Reference: patent publication US10117890B2, “Methods and compositions for treating pain” (Academia Sinica, priority 2012, dated 2018)
“Also recorded” adds a separate entry of the source.

Legend:
[1] = test system: acid(ASIC3)-induced chronic muscle pain; assay: Acid-induced chronic muscle pain model (repeated intramuscular acid injection, von Frey test); type: in vivo, mice; conditions: T1-11 4 pmole, co-injected with acid saline pH 4.0 into gastrocnemius muscle
Excerpt: Adult (8- to 12-wk-old) C57/BL6 mice were used. All procedures followed the Guide for the Use of Laboratory Animals (National Academy Press, Washington D.C., USA) and were approved by the Institutional Animal Care and Use Committee of Academia Sinica. We aimed to minimize the number of animals used and their suffering without compromising the quality of the experiments. The generation and genotyping of Tac1^−/− mice and Asic3^−/− mice were as described. Both null mutant mice were backcrossed to C57/BL6 for 10 generations to establish a congenic strain. Congenic Tac1^−/− Asic3^−/− mice were offspring of Tacl^+/− and Asic3^+/− intercrosses.
Mice received an intramuscular acid injection in the gastrocnemius muscle (GM) containing 20 μl acid saline (pH 4.0) with or without (Sar^9, Met(O2)^11)-substance P (SP; 4, 10, or 40 μM) or 100 μM RP67580 or 200 μM XE991. Mechanical hyperalgesia was assessed by applying a 0.2-mN von Frey filament to the plantar surface of both hind paws of mice. Mice were acclimatized in an acrylic cubicle for 60 min before testing. A positive response was defined as the foot lifting when the von Frey filament was applied. For each paw, the filament was applied 5 times at 30-sec intervals. Responses of the paw to mechanical stimuli were measured before injection and at 4 and 24 hr and 5 days after the first acid injection (day 0) and at 4, 24, and 72 hr and 1 week after the second acid injection (day 5). For single-injection experiments, responses to mechanical stimuli were measured before the injection, at 4 hr and at 1, 3, 5, 7, 9, 11, 13, 15 and 22 days after the injection or at 4, 24, 48 hr and 7 and 14 days after the injection. NK1-selective agonist ((Sar^9, Met(O2)^11)—SP) was from Sigma Chemical (St. Louis, Mo.). NK1-selective antagonist (RP67580) and XE991 were from Tocris (Avonmouth, UK). The experimenters were blinded to the experimental manipulations. The person who conducted von Frey test had no information of the mouse genotypes or drug injections.

[2] = test system: acid-induced chronic muscle pain after genistein treatment; assay: Modified acid-induced chronic muscle pain model with genistein treatment (fibromyalgia model); type: in vivo, mice
Experimental: Panel A: a diagram showing that mice were first received an intramuscular injection of genistein (a tyrosine kinase inhibitor) and an acid saline to one side of gastrocnemius muscle, and then pain behaviors were assayed by using von-Frey filament test at 4 hr (D0) and until 29 days (D29) after acid injection. Panel B: is a chart showing that the single acid injection induced long-lasting chronic hyperalgesia in mice with genistein pretreatment (open circles, n=5), but only transient hyperalgesia in mice without genistein pretreatment (filled circles, n=4).
Mice received an intramuscular acid injection in the gastrocnemius muscle (GM) containing 20 μl acid saline (pH 4.0) with or without (Sar^9, Met(O2)^11)-substance P (SP; 4, 10, or 40 μM) or 100 μM RP67580 or 200 μM XE991. Mechanical hyperalgesia was assessed by applying a 0.2-mN von Frey filament to the plantar surface of both hind paws of mice. […] Responses of the paw to mechanical stimuli were measured before injection and at 4 and 24 hr and 5 days after the first acid injection (day 0) and at 4, 24, and 72 hr and 1 week after the second acid injection (day 5). For single-injection experiments, responses to mechanical stimuli were measured before the injection, at 4 hr and at 1, 3, 5, 7, 9, 11, 13, 15 and 22 days after the injection or at 4, 24, 48 hr and 7 and 14 days after the injection. […]

[3] = test system: ASIC3-expressing muscle nociceptors; assay: Whole-cell patch clamp of acid-induced current in ASIC3-expressing muscle nociceptors; type: cell-based, mice; conditions: T1-11 10 nM; n=9
Experimental: To retrograde-trace muscle-afferent DRG neurons, mice were injected with 4% Fluorogold (Fluorochrome, Denver, Colo.) into the GM of both legs for 5 to 7 days, then lumbar DRG neurons were dissected and removed from both sides and placed in a tube for digestion with 1 ml DMEM containing 0.125% type 1 collagenase for 90 min and 0.25% trypsin for 20 min at 37° C. The digested DRG neurons were washed with fetal calf serum (FCS)-free DMEM or DMEM containing 10% FCS during each treatment. Fully digested DRGs were triturated and plated on poly-L-lysine-coated cover slides. Cell cultures were maintained in a 5% CO2 incubator at 37° C.
Whole-cell patch-clamp recordings of muscle-afferent neurons involved use of Axopatch MultiClamp 700B (Axon Instruments). Neurons with membrane potential >−40 mV were discarded. […]
Voltage-clamp mode was used to examine the effect of SP on acid-induced currents in ASIC3-expressing DRG neurons. A total of 40 GM and 6 non-GM DRG neurons were recorded in voltage-clamp mode with Vm held at −70 mV. […] To validate whether the modulation of SP on acid-induced current was NK1-receptor specific, acid-induced current was first recorded in a bath containing 10 μM RP67580 for 2 min as a control response. […] Acid-induced current was recorded in a bath containing both SP and genistein (30 μM; Tocris), or both SP and daidzein (30 μM; Tocris) for 3 min. […]

## OC[C@H]1O[C@@H](n2cnc3c(NCc4ccc(O)cc4)ncnc32)[C@H](O)[C@@H]1O [T1-11, N^6-(4-hydroxybenzyl)adenosine]
[1]
  acid-induced hyperalgesia, co-injection of acid and T1-11: abolished the transient hyperalgesia and prevented the development of chronic hyperalgesia; also recorded: still had analgesic effects
[2]; T1-11 75-150 μg/kg (i.p.)
  analgesic effect on mice that have developed chronic muscle pain: dose-dependent analgesic effect
[2]; co-injection with acid, n=6, D0 to D29
  hyperalgesia after genistein pretreatment and single acid injection, co-injection of acid and T1-11: only showed the transient hyperalgesia
[3]
  acid-induced current in ASIC3-expressing muscle nociceptors: is enough to inhibit acid-induced current; also recorded: inhibited acid-induced current in all ASIC3-expressing muscle nociceptors
